From patent US20250144094A1 (Erasca, Inc., priority 2021, published 2025) come the findings set out here.

What is called IC50 is the point on the concentration scale where inhibition reaches its midpoint.

The target of this assay is Recombinant human ULK1 (1-649) (Homo sapiens (Human), UniProt O75385). Put plainly: ULK1 ADP Glo kinase activity assay, new method (ULKtide peptide substrate). As to conditions: 25° C., 40 minutes, read-out: ULK1 biochemical IC50. In short, it runs like this: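 GST-tagged human ULK1 (1-649) from Sf9 cells was reacted with ULKtide peptide and ATP for 40 min at 25 °C across 12-point compound dilutions from 10 μM. ADP formed was quantified by ADP-Glo luminescence; IC50 came from four-parameter fits relative to DMSO controls.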
Chain of Recombinant human ULK1 (1-649) (O75385 1-649): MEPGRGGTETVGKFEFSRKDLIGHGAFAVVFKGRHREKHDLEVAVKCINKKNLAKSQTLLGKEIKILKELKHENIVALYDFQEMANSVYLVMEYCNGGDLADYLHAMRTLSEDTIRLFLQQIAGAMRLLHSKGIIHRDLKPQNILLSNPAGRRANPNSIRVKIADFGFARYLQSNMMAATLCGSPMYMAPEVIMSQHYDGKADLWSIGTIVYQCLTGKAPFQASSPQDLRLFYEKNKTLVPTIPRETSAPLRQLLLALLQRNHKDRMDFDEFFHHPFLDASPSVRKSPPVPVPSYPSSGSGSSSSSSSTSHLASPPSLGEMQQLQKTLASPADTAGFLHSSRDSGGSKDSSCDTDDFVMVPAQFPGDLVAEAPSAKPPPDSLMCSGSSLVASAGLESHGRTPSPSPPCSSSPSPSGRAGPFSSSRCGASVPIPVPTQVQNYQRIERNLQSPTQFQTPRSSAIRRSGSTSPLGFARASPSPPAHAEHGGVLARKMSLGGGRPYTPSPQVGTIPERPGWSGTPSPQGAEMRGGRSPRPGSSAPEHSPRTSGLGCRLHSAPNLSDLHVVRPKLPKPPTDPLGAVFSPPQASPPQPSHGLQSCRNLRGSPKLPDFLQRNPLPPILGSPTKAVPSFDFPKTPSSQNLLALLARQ
A general note: ADP-Glo turns the ADP formed in a reaction into a luminescent signal.

Each structure is given as a SMILES string. Bounds are passed on as bounds.

Consider `CN1CCS(=O)(=O)c2cc(-c3nc(Nc4cc5nnn(C)c5cc4Cl)ncc3C(F)(F)F)sc2C1=O` [Example 200, 7-(2-((6-chloro-1-methyl-1H-benzo[d][1,2,3]triazol-5-yl)amino)-5-(trifluoromethyl)pyrimidin-4-yl)-4-methyl-3,4-dihydrothieno[2,3-f][1,4]thiazepin-5(2H)-one 1,1-dioxide], for which the IC50 is more than 100 nM.

For the compound `O=C1c2sc(-c3nc(Nc4cc5c(cc4Cl)CCNC5)ncc3C(F)(F)F)cc2S(=O)(=O)CCN1C1CC1` [Example 201, 7-(2-((6-chloro-1,2,3,4-tetrahydroisoquinolin-7-yl)amino)-5-(trifluoromethyl)pyrimidin-4-yl)-4-cyclopropyl-3,4-dihydrothieno[2,3-f][1,4]thiazepin-5(2H)-one 1,1-dioxide], the IC50 is not above 5 nM.

Consider `O=C1c2sc(-c3nc(Nc4cc5c(cc4Cl)CCNC5)ncc3C(F)(F)F)cc2S(=O)(=O)CCN1C1CCC1` [Example 202, 7-(2-((6-chloro-1,2,3,4-tetrahydroisoquinolin-7-yl)amino)-5-(trifluoromethyl)pyrimidin-4-yl)-4-cyclobutyl-3,4-dihydrothieno[2,3-f][1,4]thiazepin-5(2H)-one 1,1-dioxide], for which the IC50 is not above 5 nM.

For `CCN1CCc2cc(Nc3ncc(C(F)(F)F)c(-c4cc5c(s4)C(=O)N(C4CCC4)CCS5(=O)=O)n3)c(Cl)cc2C1` [Example 203, 7-(2-((7-chloro-2-ethyl-1,2,3,4-tetrahydroisoquinolin-6-yl)amino)-5-(trifluoromethyl)pyrimidin-4-yl)-4-cyclobutyl-3,4-dihydrothieno[2,3-f][1,4]thiazepin-5(2H)-one 1,1-dioxide], the IC50 was not above 5 nM.

As for `CCN1CCS(=O)(=O)c2cc(-c3nc(Nc4cc5c(cc4Cl)CCNC5)ncc3C(F)(F)F)sc2C1=O` [Example 204, 7-(2-((6-chloro-1,2,3,4-tetrahydroisoquinolin-7-yl)amino)-5-(trifluoromethyl)pyrimidin-4-yl)-4-ethyl-3,4-dihydrothieno[2,3-f][1,4]thiazepin-5(2H)-one 1,1-dioxide], the IC50 was not above 5 nM.

With `Cc1cc2c(cc1Nc1ncc(C(F)(F)F)c(-c3cc4c(s3)C(=O)N(C)CCS4(=O)=O)n1)CCN(CC1CC1)C2` [Example 205, 7-(2-((2-(cyclopropylmethyl)-7-methyl-1,2,3,4-tetrahydroisoquinolin-6-yl)amino)-5-(trifluoromethyl)pyrimidin-4-yl)-4-methyl-3,4-dihydrothieno[2,3-f][1,4]thiazepin-5(2H)-one 1,1-dioxide], the IC50 is not above 5 nM.

As for `CN1CCS(=O)(=O)c2cc(-c3nc(Nc4ccc(N5CCN(CC6CC6)CC5)cc4Cl)ncc3C(F)(F)F)sc2C1=O` [Example 206, 7-(2-((2-chloro-4-(4-(cyclopropylmethyl)piperazin-1-yl)phenyl)amino)-5-(trifluoromethyl)pyrimidin-4-yl)-4-methyl-3,4-dihydrothieno[2,3-f][1,4]thiazepin-5(2H)-one 1,1-dioxide], the IC50 was not above 5 nM.

For `CCc1cc2c(cc1Nc1ncc(C(F)(F)F)c(-c3cc4c(s3)C(=O)N(C3CC3)CCS4(=O)=O)n1)CCNC2` [Example 207, 4-cyclopropyl-7-(2-((7-ethyl-1,2,3,4-tetrahydroisoquinolin-6-yl)amino)-5-(trifluoromethyl)pyrimidin-4-yl)-3,4-dihydrothieno[2,3-f][1,4]thiazepin-5(2H)-one 1,1-dioxide], the half-maximal inhibitory concentration (IC50) was not above 5 nM.

In the case of `CCc1cc2c(cc1Nc1ncc(C(F)(F)F)c(-c3cc4c(s3)C(=O)N(C3CCC3)CCS4(=O)=O)n1)CCNC2` [Example 208, 4-cyclobutyl-7-(2-((7-ethyl-1,2,3,4-tetrahydroisoquinolin-6-yl)amino)-5-(trifluoromethyl)pyrimidin-4-yl)-3,4-dihydrothieno[2,3-f][1,4]thiazepin-5(2H)-one 1,1-dioxide], the IC50 is not above 5 nM.

With `O=C1c2sc(-c3nc(Nc4cc5c(cc4C4CC4)CNCC5)ncc3C(F)(F)F)cc2S(=O)(=O)CCN1C1CC1` [Example 209, 4-cyclopropyl-7-(2-((7-cyclopropyl-1,2,3,4-tetrahydroisoquinolin-6-yl)amino)-5-(trifluoromethyl)pyrimidin-4-yl)-3,4-dihydrothieno[2,3-f][1,4]thiazepin-5(2H)-one 1,1-dioxide], the IC50 is not above 5 nM.

Consider `O=C1c2sc(-c3nc(Nc4cc5c(cc4Cl)CNCC5)ncc3C(F)(F)F)cc2S(=O)(=O)CCN1C1COC1` [Example 210, 7-(2-((7-chloro-1,2,3,4-tetrahydroisoquinolin-6-yl)amino)-5-(trifluoromethyl)pyrimidin-4-yl)-4-(oxetan-3-yl)-3,4-dihydrothieno[2,3-f][1,4]thiazepin-5(2H)-one 1,1-dioxide], for which the IC50 was not above 5 nM.

Take `CCN1CCc2cc(Cl)c(Nc3ncc(C(F)(F)F)c(-c4cc5c(s4)C(=O)N(C)CCS5(=O)=O)n3)cc2C1` [Example 211, 7-(2-((6-chloro-2-ethyl-1,2,3,4-tetrahydroisoquinolin-7-yl)amino)-5-(trifluoromethyl)pyrimidin-4-yl)-4-methyl-3,4-dihydrothieno[2,3-f][1,4]thiazepin-5(2H)-one 1,1-dioxide]: the IC50 lay within 10 to 50 nM.

Regarding `CCc1cc2c(cc1Nc1ncc(C(F)(F)F)c(-c3cc4c(s3)C(=O)N(C)CCS4(=O)=O)n1)CNCC2` [Example 212, 7-(2-((6-ethyl-1,2,3,4-tetrahydroisoquinolin-7-yl)amino)-5-(trifluoromethyl)pyrimidin-4-yl)-4-methyl-3,4-dihydrothieno[2,3-f][1,4]thiazepin-5(2H)-one 1,1-dioxide], the half-maximal inhibitory concentration (IC50) was not above 5 nM.

Take `CCN1CCc2cc(Nc3ncc(C(F)(F)F)c(-c4cc5c(s4)C(=O)N(C4CC4)CCS5(=O)=O)n3)c(Cl)cc2C1` [Example 213, 7-(2-((7-chloro-2-ethyl-1,2,3,4-tetrahydroisoquinolin-6-yl)amino)-5-(trifluoromethyl)pyrimidin-4-yl)-4-cyclopropyl-3,4-dihydrothieno[2,3-f][1,4]thiazepin-5(2H)-one 1,1-dioxide]: the IC50 is not above 5 nM.

In the case of `O=C1c2sc(-c3nc(Nc4cc5c(cc4Cl)CCNC5)ncc3C(F)(F)F)cc2S(=O)(=O)CCN1CC(F)(F)F` [Example 214, 7-(2-((6-chloro-1,2,3,4-tetrahydroisoquinolin-7-yl)amino)-5-(trifluoromethyl)pyrimidin-4-yl)-4-(2,2,2-trifluoroethyl)-3,4-dihydrothieno[2,3-f][1,4]thiazepin-5(2H)-one 1,1-dioxide], the 50% inhibitory concentration (IC50) is not above 5 nM.

As to `O=C1c2sc(-c3nc(Nc4cc5c(cc4C4CC4)CNCC5)ncc3C(F)(F)F)cc2S(=O)(=O)CCN1CC(F)(F)F` [Example 215, 7-(2-((7-cyclopropyl-1,2,3,4-tetrahydroisoquinolin-6-yl)amino)-5-(trifluoromethyl)pyrimidin-4-yl)-4-(2,2,2-trifluoroethyl)-3,4-dihydrothieno[2,3-f][1,4]thiazepin-5(2H)-one 1,1-dioxide], the IC50 is not above 5 nM.

With `Cc1cc2c(cc1Nc1ncc(C(F)(F)F)c(-c3cc4c(s3)C(=O)N(C)CCS4(=O)=O)n1)CCN(CC1COC1)C2` [Example 216, 4-methyl-7-(2-((7-methyl-2-(oxetan-3-ylmethyl)-1,2,3,4-tetrahydroisoquinolin-6-yl)amino)-5-(trifluoromethyl)pyrimidin-4-yl)-3,4-dihydrothieno[2,3-f][1,4]thiazepin-5(2H)-one 1,1-dioxide], the IC50 is not above 5 nM.
